For data set [1], the system named is neuropathic rat (sciatic nerve constriction, CCI). As to the kind of experiment: Nociceptive threshold by vocalization test to a mechanical stimulus (Randall-Selitto) in rats with mononeuropathy from sciatic nerve constriction (CCI). Format: in vivo, male Sprague-Dawley rats. As for the experimental part: A mononeuropathy is induced in male Sprague-Dawley rats (8 per group) by sciatic nerve constriction. More specifically, on D0, the rats are anesthetized with halothane and the sciatic nerve (injured hind paw side) is prepared using chromic catgut, 4 filament. Neuropathic pain lasting more than 40 days is thus induced.
On D7, the rats are placed in a hermetic chamber where they will inhale, for 75 minutes, the test gas mixture or medical air in the control rats (Sham). Repeated exposures to the mixtures take place on D7, D8, and D9.
Other rats are subjected to comparative treatments with conventional painkilling products, namely ketamine (3×10 mg/kg, sc) and morphine (1 mg/kg, sc).
The nociceptive threshold is then measured via a vocalization test in response to a mechanical stimulus (Randall-Selitto).
The data obtained per measurement are expressed as mean (±standard deviation). The level of significance is set starting from P<0.05.

In the next data set the test system is human beings. The following applies: cited from earlier work.
[2] abbreviates: morphine 1 mg/kg sc, neuropathic rat.
Setting [3] is: N2O concentration 5-25% (vol. %).
[4] abbreviates: N2O concentration 26-45% (vol. %).
Where [5] appears, read: N2O concentration 45-65% (vol. %).

Molecules are shown by their SMILES. Entries after “also recorded” stand apart in the source; their conditions may differ. Like-named read-outs stand apart in the source and are kept apart here. Bounds are passed on as bounds.

On to `CN1CC[C@]23c4c5ccc(O)c4O[C@H]2[C@@H](O)C=C[C@H]3[C@H]1C5` [morphine], for which the “duration of analgesic effect” value in data set [1] (morphine 1 mg/kg sc, D14, neuropathic rat) was 30 min. In data set [1] (setting [2]), the “delayed effect (following days) / anti-hyperalgesic long-term effect” value is reported as “without a delayed effect; also recorded: without any anti-hyperalgesic long-term effect” and the “duration of effect following administration (in words)” value is on record as “limited to a few minutes”.

`[N-]=[N+]=O` [nitrous oxide]: the “duration of sustained reduction of chronic pain of neuropathic type” value in data set [1] (rat, in vivo) is on record as above 1 month. For the same compound, in the data set on human beings (setting [3]), the Amnesia entry is reported as “none”, the Analgesia result is “none”, the Contact result is “present” and the Psychic effects result is on record as “slight”. In addition, in the data set on human beings (setting [4]), the Amnesia result is on record as “slight”, the Analgesia result was “weak”, the Contact result is “present” and the Psychic effects entry was “drunkenness”. In the data set with human beings (setting [5]), the Amnesia entry is reported as “complete”, the Analgesia result was “moderate”, the Contact result was “present” and the Psychic effects result was “drowsiness”. Also, in the data set on human beings (N2O concentration 66-85% (vol. %)), the “Psychic effects, Amnesia, Analgesia, Contact” value is reported as “Patient unconscious”.

Consider `O=C1CC[C@@]2(O)[C@H]3Cc4ccc(O)c5c4[C@@]2(CCN3CC2CC2)[C@H]1O5` [naltrexone], for which the “effect on the anti-sensitization effect of 50% nitrous oxide on the following days” value in data set [1] (naltrexone given to block the analgesic effect of 50% nitrous oxide on D7) is “does not modify”.

Consider `CNC1(c2ccccc2Cl)CCCCC1=O` (stereo not shown) [ketamine], for which, in data set [1] (ketamine 3x10 mg/kg sc, neuropathic rat), the “duration of anti-hyperalgesic effect” value is at most 2 days.

The values are drawn from patent US20120045528A1, “USE OF N20 GAS FOR TREATING CHRONIC PAIN” (priority 2009, published 2012).
